The results in this text go back to patent US20260176267A1, “PREPARATION OF IMIDAZOPYRIDINE AND IMIDAZOPYRIDAZINE DERIVATIVES AS NOVEL DIACYLGLYCERIDE O-ACYLTRANSFERASE 2 INHIBITORS” (Merck Sharp & Dohme LLC, priority 2022, published 2026).

One may read the pIC50 as the IC50 on a negative log10 scale, so that one unit is a factor of ten. A lower pIC50 goes with a large IC50.

pIC50: −log10 of the molar value.

The target in this assay is T1, human DGAT2 (hDGAT2) (Homo sapiens, UniProt Q96PD7).
T1 construct: made in house; host or cells: Sf-9 insect cells (baculovirus), membrane fraction
T1 sequence (Q96PD7 1-388): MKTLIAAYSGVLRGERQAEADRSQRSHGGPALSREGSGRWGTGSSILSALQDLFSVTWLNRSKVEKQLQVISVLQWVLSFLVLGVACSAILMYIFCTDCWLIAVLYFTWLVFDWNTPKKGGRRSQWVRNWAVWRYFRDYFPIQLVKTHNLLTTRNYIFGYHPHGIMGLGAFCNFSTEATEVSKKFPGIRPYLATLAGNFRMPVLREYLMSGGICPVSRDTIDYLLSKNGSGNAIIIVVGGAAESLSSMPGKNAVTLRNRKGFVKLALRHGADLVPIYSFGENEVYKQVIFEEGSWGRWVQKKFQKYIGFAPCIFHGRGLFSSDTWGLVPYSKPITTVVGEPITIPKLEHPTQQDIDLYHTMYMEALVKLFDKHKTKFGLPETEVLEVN
As to the kind of experiment: DGAT2 Enzymatic Activity Assay. The format is biochemical. To be noted: membrane prep of Sf-9 cells expressing hDGAT2; 13C18-triolein product by LC/MS/MS; 25 μM diolein, 5 μM 13C oleoyl-CoA, rt. The method in brief: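 At room temperature, DGAT2 activity in baculovirus-infected Sf-9 membrane preps (human enzyme, untagged) is measured as formation of ^13C18-triolein. Product is extracted and measured by positive-mode LC/MS/MS, with the ratio to spiked ^13C21-triolein giving inhibition and IC50.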
In turn, `Cc1cc(Oc2ncc(F)cc2OCC(F)F)nn2cc(C(=O)N[C@H]3CCCC(F)(F)[C@@H]3O)nc12` [Example 174, N-((1S,2R)-3,3-difluoro-2-hydroxycyclohexyl)-6-((3-(2,2-difluoroethoxy)-5-fluoropyridin-2-yl)oxy)-8-methylimidazo[1,2-b]pyridazine-2-carboxamide] showed a pIC50 of 7.85.

Molecule `Cc1c(C(=O)NC2(C)CS(=O)(=O)C2)nc2ccc(Oc3ncc(N(C)C)cc3OCC(F)(F)F)cn12` [Example 152, 6-[5-(dimethylamino)-3-(2,2,2-trifluoroethoxy)pyridine-2-yl]oxy-3-methyl-N-(3-methyl-1,1-dioxo-thietan-3-yl)imidazo[1,2-a]pyridin-1-ium-2-carboxamide] showed a pIC50 of 7.20.

`Cc1c(C(=O)NC2(C)CS(=O)(=O)C2)nc2cc(F)c(Oc3ncc(F)cc3OCC(F)(F)F)cn12` [Example 121, 7-fluoro-6-[[5-fluoro-3-(2,2,2-trifluoroethoxy)-2-pyridyl]oxy]-3-methyl-N-(3-methyl-1,1-dioxo-thietan-3-yl)imidazo[1,2-a]pyridine-2-carboxamide]: the pIC50 was 7.39.

As to `Cc1cc2nc(C(=O)NC3(C)CCS(=O)(=O)CC3)cn2cc1Oc1nccnc1OCC(F)(F)F` [Example 20, 7-methyl-N-(4-methyl-1,1-dioxidotetrahydro-2H-thiopyran-4-yl)-6-((3-(2,2,2-trifluoroethoxy)pyrazin-2-yl)oxy)imidazo[1,2-a]pyridine-2-carboxamide], the pIC50 is 7.76.

With `Cc1c(C(=O)NC2(C)CCN(C(=O)C(F)(F)F)CC2)nc2ccc(Oc3ncc(F)cc3OCC(F)(F)F)cn12` [Example 102, 6-[[5-fluoro-3-(2,2,2-trifluoroethoxy)-2-pyridyl]oxy]-3-methyl-N-[4-methyl-1-(2,2,2-trifluoroacetyl)-4-piperidyl]imidazo[1,2-a]pyridine-2-carboxamide], the pIC50 is 6.89.

`Cc1cc2nc(C(=O)NC3(C)CCS(=O)(=O)CC3)cn2cc1Oc1ncc(F)cc1OCC(F)(F)F` [Example 29, 6-[[5-fluoro-3-(2,2,2-trifluoroethoxy)-2-pyridyl]oxy]-7-methyl-N-(4-methyl-1,1-dioxo-thian-4-yl)imidazo[1,2-a]pyridine-2-carboxamide] gave a pIC50 of 7.89. This pIC50 is 1.00 log units higher than that of the molecule before.

`Cc1cc2nc(C(=O)NC3(C)CCS(=O)(=O)CC3)cn2cc1Oc1ncc(Cl)cc1OCC(F)(F)F` [Example 30, 6-[[5-chloro-3-(2,2,2-trifluoroethoxy)-2-pyridyl]oxy]-7-methyl-N-(4-methyl-1,1-dioxo-thian-4-yl)imidazo[1,2-a]pyridine-2-carboxamide] gave a pIC50 of 8.21. This pIC50 is 0.32 log units higher than that of the molecule before.

`CC1(NC(=O)c2cn3cc(Oc4ncccc4OCC(F)(F)F)cc(F)c3n2)CCS(=O)(=O)CC1` [Example 7, 8-fluoro-N-(4-methyl-1,1-dioxo-thian-4-yl)-6-[[3-(2,2,2-trifluoroethoxy)-2-pyridyl]oxy]imidazo[1,2-a]pyridine-2-carboxamide]: the pIC50 is 8.33.

`COc1c(C(=O)NC2(C)CS(=O)(=O)C2)nc2ccc(Oc3ncc(F)cc3OCC(F)(F)F)cn12` [Example 135, 6-[[5-fluoro-3-(2,2,2-trifluoroethoxy)-2-pyridyl]oxy]-3-methoxy-N-(3-methyl-1,1-dioxo-thietan-3-yl)imidazo[1,2-a]pyridin-1-ium-2-carboxamide;2,2,2-trifluoroacetate]: the pIC50 was 7.21.

Take `Cc1c(C(=O)NC2(C(C)C)CCS(=O)(=O)CC2)nc2ccc(Oc3ncc(F)cc3OCC(F)F)cn12` [Example 65, 6-[[3-(2,2-difluoroethoxy)-5-fluoro-2-pyridyl]oxy]-N-(4-isopropyl-1,1-dioxo-thian-4-yl)-3-methyl-imidazo[1,2-a]pyridine-2-carboxamide]: the pIC50 is 6.36. Compared with the last molecule, the pIC50 is 0.85 log units lower.

For the molecule `Cc1c(C(=O)N[C@]2(C)CCS(=O)(=O)C2)nc2ccc(Oc3ncc(F)cc3OCC(F)(F)F)cn12` [Example 101], the pIC50 was 7.06.
